target: (recombinant) catalytic domain of human Bub1 (amino acids 704-1085) (Homo sapiens (Human), UniProt O43683); assay: Bub1 kinase assay (TR-FRET); assay type: biochemical; conditions: ATP 10 μM final, peptide substrate 1 μM final, 60 min at 22° C., read-out: Biological Assay: Bub1 kinase assay median IC50
How it was run: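 Readout was TR-FRET between a Eu-labeled antibody complex recognizing phosphoserine and streptavidin-XL665 on the biotinylated peptide, after EDTA stop and 1 h at 22° C. The kinase reaction ran for 60 min at 22° C. Values are means or medians of repeat tests, from 4-parameter fits normalized to enzyme-free and inhibitor-free controls.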

(recombinant) catalytic domain of human Bub1 (amino acids 704-1085), sequence (O43683 704-1085): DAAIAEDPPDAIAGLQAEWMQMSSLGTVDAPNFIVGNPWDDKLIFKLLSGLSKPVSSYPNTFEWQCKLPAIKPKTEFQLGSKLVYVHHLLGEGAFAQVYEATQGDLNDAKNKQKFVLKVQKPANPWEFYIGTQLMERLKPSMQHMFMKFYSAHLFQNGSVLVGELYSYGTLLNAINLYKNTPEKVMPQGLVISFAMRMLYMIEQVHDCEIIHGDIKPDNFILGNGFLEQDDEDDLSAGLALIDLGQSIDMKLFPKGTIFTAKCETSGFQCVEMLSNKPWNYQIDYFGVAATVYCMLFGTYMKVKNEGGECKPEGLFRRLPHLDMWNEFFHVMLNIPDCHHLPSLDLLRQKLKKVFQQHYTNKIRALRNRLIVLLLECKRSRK

SMILES	IC50
CC1(C)CC(=O)c2c([nH]c(-c3ccnc(NCc4cncs4)c3)c2Nc2ccccc2)C1 [Example 508, 6,6-dimethyl-3-(phenylamino)-2-{2-[(1,3-thiazol-5-ylmethyl)amino]pyridin-4-yl}-1,5,6,7-tetrahydro-4H-indol-4-one]	193 nM
CC1(C)CC(=O)c2c([nH]c(-c3ccnc(NCC4CC4)c3)c2Nc2ccccc2)C1 [Example 509, 2-{2-[(cyclopropylmethyl)amino]pyridin-4-yl}-6,6-dimethyl-3-(phenylamino)-1,5,6,7-tetrahydro-4H-indol-4-one]	221 nM
CC1(C)CC(=O)c2c([nH]c(-c3ccncc3)c2Nc2cnccc2CO)C1 [Example 510, 3-{[4-(hydroxymethyl)pyridin-3-yl]amino}-6,6-dimethyl-2-(pyridin-4-yl)-1,5,6,7-tetrahydro-4H-indol-4-one]	25.3 nM
CC1(C)CC(=O)c2c([nH]c(-c3ccncc3)c2Nc2ncccc2CO)C1 [Example 511, 3-{[3-(hydroxymethyl)pyridin-2-yl]amino}-6,6-dimethyl-2-(pyridin-4-yl)-1,5,6,7-tetrahydro-4H-indol-4-one]	65.2 nM
CC1(C)CC(=O)c2c([nH]c(-c3ccncc3)c2Nc2ccc(Cc3ccccc3)cc2)C1 [Example 513, 3-[(4-benzylphenyl)amino]-6,6-dimethyl-2-(pyridin-4-yl)-1,5,6,7-tetrahydro-4H-indol-4-one]	> 20000 nM
CC1(C)CC(=O)c2c([nH]c(-c3ccncc3)c2Nc2ccc(Oc3ccccc3)cc2)C1 [Example 514, 6,6-dimethyl-3-[(4-phenoxyphenyl)amino]-2-(pyridin-4-yl)-1,5,6,7-tetrahydro-4H-indol-4-one]	> 20000 nM

From patent US10428044B2, “3-amino-1,5,6,7-tetrahydro-4H-indol-4-ones” (Bayer Pharma Aktiengesellschaft, priority 2014, dated 2019)
